The supplement of paper PMC11208160

assay: recombinant barcode read abundance after kanamycin selection (control-corrected) (log10(CPM+1)); higher = more efficient recombination; sequences stand for … in AGTGCAGAGAAAATCGGCCAGTTTTCTCTGCCTGCAGTCCGCATGCCGT…AGATTTATGCAGCGGACTGCCTTTCTCCCAAAGTGATAAACCGGACAGTATCATGGACCGGTTTTCCCGGTAATCCGTATTTGCAAGGTTGGTTTCACT; site = the 11-nt target
Outline: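 For this pooled screen, each oligo contained a promoter, a target, a barcode and the J23119-driven first 104 bases of the bridge RNA. Gibson cloning placed it into a vector supplying the remaining 73 bp and a T7-inducible recombinase, and the pool was co-electroporated into E. coli with a donor plasmid. Recombination efficiency is derived from barcode counts per million at recombinant junctions after averaging and control correction, and is expressed on a log scale as log10(CPM+1), with selection on chloramphenicol/ampicillin/kanamycin plus 0.1 mM IPTG against a chloramphenicol/ampicillin LB agar control.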
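Also: IS621 recombinase and bridge RNA in Escherichia coli cells.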

| Sequence | recombinant barcode read abundance (log10) |
| --- | --- |
| CACTATCCTTGGGTTCTAACCTGTTGCGG (site CACTAGCCTCC) | 0.0909 |
| CACTATCCTTGGGTTCTAACCTGTTGCGG (site CACTATCCTCC) | 1.5 |
| CACTCACCTTGGGTTCTAACCTGTTGCGG (site CACTCACCTCC) | 1.38 |
| CACTCACCTTGGGTTCTAACCTGTTGCGG (site CACTTAGCTCC) | 0.0338 |
| CACTCTCCTTGGGTTCTAACCTGTTGCCT (site CACTCTCCTAG) | 0.226 |
| CACTCTCCTTGGGTTCTAACCTGTTGCCT (site CACTCTCCTAT) | 0.00896 |
| CACTTAGCTTGGGTTCTAACCTGTTGCGG (site CACTCACCTCC) | 0.0176 |
| CACTTAGCTTGGGTTCTAACCTGTTGCGG (site CACTTAGCTCC) | 1.28 |
| CACTTCCCTTGGGTTCTAACCTGTTGCCT (site CACTTCCCTAA) | 0.191 |
| CACTTCCCTTGGGTTCTAACCTGTTGCCT (site CACTTCCCTAC) | 0.0709 |
| CACTTCCCTTGGGTTCTAACCTGTTGCCT (site CACTTCCCTAG) | 0.924 |
| CACTTCCCTTGGGTTCTAACCTGTTGCCT (site CACTTCCCTAT) | 0.0298 |
| CACTTCCCTTGGGTTCTAACCTGTTGCTT (site CACTTCCCTAA) | 1.04 |
| CACTTCCCTTGGGTTCTAACCTGTTGCTT (site CACTTCCCTAC) | 0.0814 |
| CACTTCCCTTGGGTTCTAACCTGTTGCTT (site CACTTCCCTAG) | 0.442 |
| CACTTCCCTTGGGTTCTAACCTGTTGCTT (site CACTTCCCTAT) | 0.443 |
| CACTTGTCTTGGGTTCTAACCTGTTGCCA (site CACTTGTCTTG) | 0.0547 |
| CACTTGTCTTGGGTTCTAACCTGTTGCCA (site TATTTGTCTTG) | 0.0129 |
| CAGAAGTCTTGGGTTCTAACCTGTTGCTT (site ACACGTGCTTC) | 0.0609 |
| CAGAAGTCTTGGGTTCTAACCTGTTGCTT (site CAGAAGTCTAA) | 1.44 |
| CAGAATACTTGGGTTCTAACCTGTTGCGT (site CAAAATTCTAC) | 0.215 |
| CAGAATACTTGGGTTCTAACCTGTTGCGT (site CAGAATACTAC) | 2.24 |

| Sequence | recombinant barcode read abundance (log10) |
| --- | --- |
| CAGAGAGCTTGGGTTCTAACCTGTTGCCT (site CAGAGAGCTAG) | 1.2 |
| CAGAGAGCTTGGGTTCTAACCTGTTGCCT (site CCGAGAGCTAG) | 0.0663 |
| CAGAGAGCTTGGGTTCTAACCTGTTGCCT (site CGGAGAGCTAG) | 0.0978 |
| CAGAGAGCTTGGGTTCTAACCTGTTGCCT (site CTGAGAGCTAG) | 0.132 |
| CAGAGCTCTTGGGTTCTAACCTGTTGCCT (site CAGAGCTCTAG) | 1.43 |
| CAGAGCTCTTGGGTTCTAACCTGTTGCCT (site CAGAGGTCTAG) | 0.309 |
| CAGAGTCCTTGGGTTCTAACCTGTTGCCT (site CAGAGTCCTAG) | 1.26 |
| CAGAGTCCTTGGGTTCTAACCTGTTGCCT (site CAGAGTCCTAT) | 0.3 |
| CAGATCCCTTGGGTTCTAACCTGTTGCCT (site CAGATCCCTAG) | 1.91 |
| CAGATCCCTTGGGTTCTAACCTGTTGCCT (site CCGATCCCTAG) | 0.0889 |
| CAGATCCCTTGGGTTCTAACCTGTTGCCT (site CGGATCCCTAG) | 0.0247 |
| CAGATCCCTTGGGTTCTAACCTGTTGCCT (site CTGATCCCTAG) | 0.0156 |
| CAGATGACTTGGGTTCTAACCTGTTGCCT (site CAAATTACTAG) | 0.393 |
| CAGATGACTTGGGTTCTAACCTGTTGCCT (site CAGATGACTAG) | 1.52 |
| CAGCCGTCTTGGGTTCTAACCTGTTGCGG (site CAATCGTCTCC) | 0.0473 |
| CAGCCGTCTTGGGTTCTAACCTGTTGCGG (site CAGCCGTCTCC) | 1.09 |
| CAGCGAGCTTGGGTTCTAACCTGTTGCCG (site CAACGAGCTCG) | 0.21 |
| CAGCGAGCTTGGGTTCTAACCTGTTGCCG (site CACCGAGCTCG) | 0.117 |
| CAGCGAGCTTGGGTTCTAACCTGTTGCCG (site CAGCGAGCTCG) | 0.737 |
| CAGCGAGCTTGGGTTCTAACCTGTTGCCG (site CATCGAGCTCG) | 0.0483 |
| CAGGAGACTTGGGTTCTAACCTGTTGCCT (site CAGGAGACTAG) | 1.63 |
| CAGGAGACTTGGGTTCTAACCTGTTGCCT (site TAGGAGACTGG) | 0.0578 |

| Sequence | recombinant barcode read abundance (log10) |
| --- | --- |
| CAGGCGACTTGGGTTCTAACCTGTTGCCT (site CAGGCGACTAG) | 0.0758 |
| CAGGCGACTTGGGTTCTAACCTGTTGCCT (site CAGGCGCCTAG) | 0.556 |
| CAGGCGACTTGGGTTCTAACCTGTTGCCT (site CAGGCGGCTAG) | 0 |
| CAGGCGACTTGGGTTCTAACCTGTTGCCT (site CAGGCGTCTAG) | 0.394 |
| CAGGGGACTTGGGTTCTAACCTGTTGCAC (site CAGGGGACTGT) | 2.38 |
| CAGGGGACTTGGGTTCTAACCTGTTGCAC (site TCCAACCCTAA) | 0.0666 |
| CAGGGTTCTTGGGTTCTAACCTGTTGCCT (site CAGGGTTCTAG) | 2.18 |
| CAGGGTTCTTGGGTTCTAACCTGTTGCCT (site CCGGGTTCTAG) | 0.0396 |
| CAGGGTTCTTGGGTTCTAACCTGTTGCCT (site CGGGGTTCTAG) | 0.12 |
| CAGGGTTCTTGGGTTCTAACCTGTTGCCT (site CTGGGTTCTAG) | 0.21 |
| CAGGTACCTTGGGTTCTAACCTGTTGCAT (site CAGGTACCTAT) | 3.14 |
| CAGGTACCTTGGGTTCTAACCTGTTGCAT (site CAGGTACCTCT) | 0.864 |
| CAGGTCCCTTGGGTTCTAACCTGTTGCCG (site ATACGTTCTAT) | 0.102 |
| CAGGTCCCTTGGGTTCTAACCTGTTGCCG (site CAGGTCCCTCG) | 2.74 |
| CAGGTGACTTGGGTTCTAACCTGTTGCGG (site CAGGTGACTCC) | 1.33 |
| CAGGTGACTTGGGTTCTAACCTGTTGCGG (site GGATATCCTAA) | 0.0229 |
| CAGTACGCTTGGGTTCTAACCTGTTGCCT (site CAGCAAGCTAG) | 0.31 |
| CAGTACGCTTGGGTTCTAACCTGTTGCCT (site CAGTACGCTAG) | 0.652 |
| CAGTATCCTTGGGTTCTAACCTGTTGCCT (site CAATATCCTAG) | 0.867 |
| CAGTATCCTTGGGTTCTAACCTGTTGCCT (site CACTATCCTAG) | 0.0764 |
| CAGTATCCTTGGGTTCTAACCTGTTGCCT (site CAGTATCCTAG) | 0.945 |
| CAGTATCCTTGGGTTCTAACCTGTTGCCT (site CATTATCCTAG) | 0.096 |
